System: GST‐DDX6
Experiment: GST pulldown with GST‐DDX6
Assay type: binding
Conditions: 150 µg GST‐DDX6, 300 µg recombinant Aβ oligomers or negative control protein, overnight; n = 3
Description: We conducted a series of in vitro experiments to investigate the mechanism by which DDX6 blockade affects Aβ oligomer neurotoxicity.
In accordance with the protocol provided in the GST pulldown kit (#21516; Thermo Fisher Scientific), 150 µg of GST‐DDX6 protein were rotated with 50 µL of glutathione agarose resin at 4°C for 3 h. The resin was then incubated overnight with 300 µg of recombinant Aβ oligomers or a negative control protein, washed with pH 8.0 glutathione elution buffer, and validated by dot blotting.

In the case of “Aβ42 oligomers: oligomers prepared from Aβ42 peptide (Abcam #ab120301), PBS, 72 h at 4°C”, the “pulldown by GST‐DDX6” value is reported as “successfully pulled down”.
